{"source": "patent US12187709B2", "about": "(Genentech, Inc., priority 2021, dated 2025)", "key": {"Cbl-b": {"molecular_target": "Cbl-b (Homo sapiens (Human), UniProt Q13191)", "sequence (Q13191 40-426)": "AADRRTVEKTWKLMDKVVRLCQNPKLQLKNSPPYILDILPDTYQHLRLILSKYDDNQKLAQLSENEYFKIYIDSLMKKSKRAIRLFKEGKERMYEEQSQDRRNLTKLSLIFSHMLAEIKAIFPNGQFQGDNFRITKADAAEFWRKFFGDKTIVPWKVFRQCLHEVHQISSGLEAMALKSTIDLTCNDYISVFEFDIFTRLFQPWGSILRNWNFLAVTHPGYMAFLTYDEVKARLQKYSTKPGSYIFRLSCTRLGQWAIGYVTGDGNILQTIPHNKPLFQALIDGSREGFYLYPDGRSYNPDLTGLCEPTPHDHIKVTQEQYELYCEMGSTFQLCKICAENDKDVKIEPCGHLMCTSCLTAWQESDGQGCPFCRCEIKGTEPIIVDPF", "experiment": "Cbl-b LCK Ub TR-FRET assay (Cbl-b Lck HTRF)", "type": "biochemical", "details": "for IC50: Cbl-b LCK Ub TR-FRET; for fold-selectivity (Cbl-b over C-cbl): ratio C-cbl Lck HTRF IC50 / Cbl-b Lck HTRF IC50", "summary_of_the_method": "(§1)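 Signal is read once the detection mix has stood 20 min at ambient temperature. Curves are anchored by DMSO as maximum and by omission of LCK as minimum.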"}, "c-Cbl": {"molecular_target": "c-Cbl (Homo sapiens (Human), UniProt P22681)", "sequence (P22681 47-435)": "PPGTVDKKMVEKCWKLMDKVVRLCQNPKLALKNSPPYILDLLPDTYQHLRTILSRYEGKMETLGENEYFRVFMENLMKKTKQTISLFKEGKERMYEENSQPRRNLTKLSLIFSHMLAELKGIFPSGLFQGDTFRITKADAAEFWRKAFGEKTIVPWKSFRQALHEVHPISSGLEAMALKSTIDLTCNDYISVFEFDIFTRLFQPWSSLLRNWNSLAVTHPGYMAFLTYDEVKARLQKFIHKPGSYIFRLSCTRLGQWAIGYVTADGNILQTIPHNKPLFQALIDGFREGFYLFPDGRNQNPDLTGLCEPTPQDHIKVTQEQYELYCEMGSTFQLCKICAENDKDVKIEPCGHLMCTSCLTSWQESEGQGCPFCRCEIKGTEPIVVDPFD", "experiment": "C-Cbl LCK Ub TR-FRET assay (C-cbl Lck HTRF)", "type": "biochemical", "summary_of_the_method": "as §1"}, "[1]": {"molecular_target": "Human Cbl-b (residues 40-426) (Homo sapiens (Human), UniProt Q13191)", "sequence (Q13191 40-426)": "as the sequence (Q13191 40-426) above", "experiment": "Cbl-b SPR assay", "type": "binding", "details": "for Fold of selectivity: C-cbl SPR Kd vs Cbl-b SPR Kd; for Kd: SPR, 20° C.", "summary_of_the_method": "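Values derive from a 1:1 model fitted to multicycle kinetics on captured protein (1300-1500 RU), using six 2-fold concentrations, 60 s contact and dissociation of 120-1200 s. In the chaser format, kd comes from a single-exponential fit of % site occupancy over time.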"}, "c-Cbl (residues 47-435)": {"molecular_target": "c-Cbl (residues 47-435) (Homo sapiens (Human), UniProt P22681)", "sequence (P22681 47-435)": "as the sequence (P22681 47-435) above", "experiment": "c-Cbl SPR assay", "type": "binding", "details": "20° C.", "procedure": "Affinity of binding to Cbl-b and c-Cbl for compounds described herein was assessed by surface plasmon resonance (SPR) according to the following protocol.\nA surface capture range of 1300-1500 RU of protein was used for both isoforms.\nFor SPR measurements, 6 concentrations with 2 fold serial dilution were measured with blanks flanking each series for double referencing. […] SPR sensorgrams were recorded in multi-cycle kinetics format, with a contact time of 60 seconds and a flow rate of 40 μl/min, the dissociation time was varied between 120-1200 seconds aiming for 4-5 half-lives of the measured interaction.\nKinetic and affinity parameters were extracted from the multicycle kinetics data fitting to a 1:1 binding model using the Biacore™ Incyte evaluation software (Cytiva).\nChaser assay utilize a single cycle kinetics SPR experiment with a contact time of 120 seconds, a flow rate of 50 μl/min and a dissociation time of 450 seconds. Single cycle kinetics titration utilized an initial blank injection and 5 concentrations with 2 fold serial dilution with a maximum concentration of 500 nM, blanked to a preceding 6 point blank single cycle kinetics injection for double referencing.\nThe kd is measured independently by determining the percentage unoccupied compound binding site over time by measuring the binding of a chaser compound measured by SPR.\nChaser binding was measured by a multicycle kinetics SPR experiment using a contact time of 20 seconds, a flow rate of 30 μl/min, and a dissociation time of 120 seconds. […] The % compound bound at a given time was determined by comparison to a single injection of chaser preceding the single cycle kinetics titration defined below. % Compound Bound=(1−(RUT/RUT0))*100\nThe % compound bound is plotted against time in seconds and fit to a single exponential, where the exponent represents the kd of the compound-protein complex. The single cycle kinetics experiment of the compound is then fit with a fixed kd determined using the chaser."}}, "data": [{"smiles": "CO[C@H]1C[C@](c2cccc(N3Cc4c(cc([C@@H](C)NC5(C)CCC5)cc4C(F)(F)F)C3=O)c2)(c2nncn2C)C1", "note": "(single isomer, unassigned) [Compound 184]", "values": [{"measurement": "IC50", "setting": "Cbl-b", "result": 7.6, "unit": "nM"}, {"measurement": "fold-selectivity (Cbl-b over C-cbl)", "setting": "Cbl-b", "result": 1.1, "unit": "x"}, {"measurement": "IC50", "setting": "c-Cbl", "result": 8.3, "unit": "nM"}, {"measurement": "Fold of selectivity", "setting": "[1]", "result": 6.3, "unit": "×"}, {"measurement": "Kd", "setting": "[1]", "result": 0.42, "unit": "nM"}, {"measurement": "Kd", "setting": "c-Cbl (residues 47-435)", "result": 2.5, "unit": "nM"}]}, {"smiles": "CO[C@H]1C[C@](c2cccc(N3Cc4c(cc([C@H](C)NC5(C)CCC5)cc4C(F)(F)F)C3=O)c2)(c2nncn2C)C1", "note": "(single isomer, unassigned) [Compound 185]", "values": [{"measurement": "IC50", "setting": "Cbl-b", "result": 23, "unit": "nM"}, {"measurement": "fold-selectivity (Cbl-b over C-cbl)", "setting": "Cbl-b", "result": 6.7, "unit": "x"}, {"measurement": "IC50", "setting": "c-Cbl", "result": 150, "unit": "nM"}, {"measurement": "Fold of selectivity", "setting": "[1]", "result": 29, "unit": "×"}, {"measurement": "Kd", "setting": "[1]", "result": 3.2, "unit": "nM"}, {"measurement": "Kd", "setting": "c-Cbl (residues 47-435)", "result": 97, "unit": "nM"}]}, {"smiles": "CC(C)[C@H]1CN(C)CCN1Cc1cc(Cl)c2c(c1)C(=O)N(c1cccc(C3(c4nncn4C)CC4(COC4)C3)c1)C2", "note": "(single isomer, unassigned) [Compound 204]", "values": [{"measurement": "IC50", "setting": "Cbl-b", "result": 13, "unit": "nM"}, {"measurement": "fold-selectivity (Cbl-b over C-cbl)", "setting": "Cbl-b", "result": 2.3, "unit": "x"}, {"measurement": "IC50", "setting": "c-Cbl", "result": 29, "unit": "nM"}, {"measurement": "Fold of selectivity", "setting": "[1]", "result": 4.1, "unit": "×"}, {"measurement": "Kd", "setting": "[1]", "result": 3.7, "unit": "nM"}, {"measurement": "Kd", "setting": "c-Cbl (residues 47-435)", "result": 15, "unit": "nM"}]}, {"smiles": "C=C[C@@H](C)Nc1cc(N2Cc3c(cc(CNC4(C)CCC4)cc3C(F)(F)F)C2=O)cc([C@]2(c3nncn3C)C[C@H](OC)C2)c1", "note": "(single isomer, unassigned) [Compound 219]", "values": [{"measurement": "IC50", "setting": "Cbl-b", "result": 13, "unit": "nM"}, {"measurement": "fold-selectivity (Cbl-b over C-cbl)", "setting": "Cbl-b", "result": 2.7, "unit": "x"}, {"measurement": "IC50", "setting": "c-Cbl", "result": 36, "unit": "nM"}, {"measurement": "Fold of selectivity", "setting": "[1]", "result": 6.5, "unit": "×"}, {"measurement": "Kd", "setting": "[1]", "result": 4.5, "unit": "nM"}, {"measurement": "Kd", "setting": "c-Cbl (residues 47-435)", "result": 29, "unit": "nM"}]}, {"smiles": "C=C[C@H](C)Nc1cc(N2Cc3c(cc(CNC4(C)CCC4)cc3C(F)(F)F)C2=O)cc([C@]2(c3nncn3C)C[C@H](OC)C2)c1", "note": "(single isomer, unassigned) [Compound 220]", "values": [{"measurement": "IC50", "setting": "Cbl-b", "result": 13, "unit": "nM"}, {"measurement": "fold-selectivity (Cbl-b over C-cbl)", "setting": "Cbl-b", "result": 3.0, "unit": "x"}, {"measurement": "IC50", "setting": "c-Cbl", "result": 39, "unit": "nM"}, {"measurement": "Fold of selectivity", "setting": "[1]", "result": 13, "unit": "×"}, {"measurement": "Kd", "setting": "[1]", "result": 2.7, "unit": "nM"}, {"measurement": "Kd", "setting": "c-Cbl (residues 47-435)", "result": 34, "unit": "nM"}]}, {"smiles": "CO[C@H]1C[C@](c2cc(N[C@H](C)CC#N)cc(N3Cc4c(cc(CNC5(C)CCC5)cc4C(F)(F)F)C3=O)c2)(c2nncn2C)C1", "note": "(single isomer, unassigned) [Compound 221]", "values": [{"measurement": "IC50", "setting": "Cbl-b", "result": 11, "unit": "nM"}, {"measurement": "fold-selectivity (Cbl-b over C-cbl)", "setting": "Cbl-b", "result": 1.5, "unit": "x"}, {"measurement": "IC50", "setting": "c-Cbl", "result": 16, "unit": "nM"}, {"measurement": "Fold of selectivity", "setting": "[1]", "result": 5.8, "unit": "×"}, {"measurement": "Kd", "setting": "[1]", "result": 1.3, "unit": "nM"}, {"measurement": "Kd", "setting": "c-Cbl (residues 47-435)", "result": 7.6, "unit": "nM"}]}, {"smiles": "CO[C@H]1C[C@](c2cc(N[C@@H](C)CC#N)cc(N3Cc4c(cc(CNC5(C)CCC5)cc4C(F)(F)F)C3=O)c2)(c2nncn2C)C1", "note": "(single isomer, unassigned) [Compound 225]", "values": [{"measurement": "IC50", "setting": "Cbl-b", "result": 18, "unit": "nM"}, {"measurement": "fold-selectivity (Cbl-b over C-cbl)", "setting": "Cbl-b", "result": 4.0, "unit": "x"}, {"measurement": "IC50", "setting": "c-Cbl", "result": 72, "unit": "nM"}, {"measurement": "Fold of selectivity", "setting": "[1]", "result": 5.6, "unit": "×"}, {"measurement": "Kd", "setting": "[1]", "result": 6.9, "unit": "nM"}, {"measurement": "Kd", "setting": "c-Cbl (residues 47-435)", "result": 39, "unit": "nM"}]}, {"smiles": "CO[C@H]1C[C@@](c2cc(N[C@H](C)CC#N)cc(N3Cc4c(cc(CNC5(C)CCC5)cc4C(F)(F)F)C3=O)c2)(c2nncn2C)C1", "note": "(single isomer, unassigned) [Compound 228]", "values": [{"measurement": "IC50", "setting": "Cbl-b", "result": 16, "unit": "nM"}, {"measurement": "fold-selectivity (Cbl-b over C-cbl)", "setting": "Cbl-b", "result": 1.3, "unit": "x"}, {"measurement": "IC50", "setting": "c-Cbl", "result": 21, "unit": "nM"}, {"measurement": "Fold of selectivity", "setting": "[1]", "result": 8.7, "unit": "×"}, {"measurement": "Kd", "setting": "[1]", "result": 1.9, "unit": "nM"}, {"measurement": "Kd", "setting": "c-Cbl (residues 47-435)", "result": 16, "unit": "nM"}]}, {"smiles": "CO[C@H]1C[C@@](c2cc(N[C@@H](C)CC#N)cc(N3Cc4c(cc(CNC5(C)CCC5)cc4C(F)(F)F)C3=O)c2)(c2nncn2C)C1", "note": "(single isomer, unassigned) [Compound 233]", "values": [{"measurement": "IC50", "setting": "Cbl-b", "result": 40, "unit": "nM"}, {"measurement": "fold-selectivity (Cbl-b over C-cbl)", "setting": "Cbl-b", "result": 5.0, "unit": "x"}, {"measurement": "IC50", "setting": "c-Cbl", "result": 200, "unit": "nM"}, {"measurement": "Fold of selectivity", "setting": "[1]", "result": 7.1, "unit": "×"}, {"measurement": "Kd", "setting": "[1]", "result": 21, "unit": "nM"}, {"measurement": "Kd", "setting": "c-Cbl (residues 47-435)", "result": 150, "unit": "nM"}]}, {"smiles": "Cn1cnnc1[C@H](c1cccc(N2Cc3c(cc(CNC4(C)CCC4)cc3C(F)(F)F)C2=O)c1)C1CCC1", "note": "(single isomer, unassigned) [Compound 259]", "values": [{"measurement": "IC50", "setting": "Cbl-b", "result": 16, "unit": "nM"}, {"measurement": "fold-selectivity (Cbl-b over C-cbl)", "setting": "Cbl-b", "result": 1.0, "unit": "x"}, {"measurement": "IC50", "setting": "c-Cbl", "result": 16, "unit": "nM"}, {"measurement": "Fold of selectivity", "setting": "[1]", "result": 5.5, "unit": "×"}, {"measurement": "Kd", "setting": "[1]", "result": 0.22, "unit": "nM"}, {"measurement": "Kd", "setting": "c-Cbl (residues 47-435)", "result": 1.1, "unit": "nM"}]}, {"smiles": "Cn1cnnc1[C@H](c1cccc(N2Cc3c(cc(CNC4(C)CCC4)cc3C(F)(F)F)C2=O)c1)C1CC(OCC(F)F)C1", "note": "(single isomer, unassigned) [Compound 262]", "values": [{"measurement": "IC50", "setting": "Cbl-b", "result": 38, "unit": "nM"}, {"measurement": "fold-selectivity (Cbl-b over C-cbl)", "setting": "Cbl-b", "result": 7.1, "unit": "x"}, {"measurement": "IC50", "setting": "c-Cbl", "result": 270, "unit": "nM"}, {"measurement": "Fold of selectivity", "setting": "[1]", "result": 12, "unit": "×"}, {"measurement": "Kd", "setting": "[1]", "result": 13, "unit": "nM"}, {"measurement": "Kd", "setting": "c-Cbl (residues 47-435)", "result": 150, "unit": "nM"}]}]}
